Measurements as given in patent US20230381269A1, “METHODS OF TREATING EYE DISORDERS” (Apellis Pharmaceuticals, Inc., priority 2020, published 2023).

Legend:
patients with wet AMD = test: Phase 1b open label single ascending dose clinical trial, intravitreal injection; type: in vivo, human
Method: In some embodiments a dose for intravitreal injection of a compstatin analog (e.g., comprising two compstatin analog moieties and a PEG having a molecular weight of about 40 kD) is 5 mg-20 mg. In some embodiments the dose is 10 mg. In some embodiments the dose is 10 mg, 11 mg, 12 mg, 13 mg, 14 mg, 15 mg, 16 mg, 17 mg, 18 mg, 19 mg, or 20 mg. In certain particular embodiments the dose is 15 mg. In some embodiments, any of the afore-mentioned doses is administered by intravitreal injection in a volume of between 90 and 110 microliters, e.g., in a volume of 100 microliters. In some embodiments, any of the afore-mentioned doses is administered by intravitreal injection using a 27, 28, 29, or 30 gauge needle. […] In certain embodiments a combination of dose and needle gauge that allows administration by IVT injection in 10 seconds or less is selected. In certain embodiments a combination of dose and needle that allows administration of the dose by IVT injection in 5-6 seconds, or less, is used.
A Phase 1 open label, single ascending dose clinical trial of pegcetacoplan in patients with wet AMD and receiving anti-VEGF therapy (specifically, Lucentis®, Eylea® or Avastin®), was initiated to assess safety, tolerability and PK of pegcetacoplan. In this trial, patients receive a single dose of pegcetacoplan by intravitreal injection followed by 113 days of monitoring. […]

patients with GA [1] = test: Phase 2 randomized sham-controlled clinical trial in GA: change in GA lesion size; type: in vivo, human; details: 15 mg intravitreal monthly or every other month for 12 months vs sham
Method: A randomized, single-masked, sham-controlled clinical trial of pegcetacoplan in patients with GA was conducted. 246 patients aged ≥50 years were enrolled in the trial.
Patients were randomized in a 2:2:1:1 manner to receive 15 mg pegcetacoplan (APL-2) monthly, 15 mg pegcetacoplan every other month, sham injection monthly or sham injection every other month. Patients in the pegcetacoplan arms received a dose of 15 mg of pegcetacoplan, injected into the vitreous humor in a 0.1 cc volume, monthly or every other month for 12 months followed by six months of monitoring after the end of treatment. In the sham-injection cohorts, patients received a simulated injection. The safety, tolerability, PK, and evidence of activity of multiple intravitreal injections of pegcetacoplan in patients with GA in at least one eye were assessed. The primary efficacy endpoint was change in GA lesion size from baseline to month 12. […] The adverse event profile is depicted in FIG. 3. (See also Liao et al., Ophthalmology 127:186-195 (2020).)

[2] = Pharmacokinetic profile of a single intravitreal dose in monkeys; type: in vivo; details: single intravitreal dose 10 mg/eye in both eyes
[3] = Repeated intravitreal injection toxicology/toxicokinetics over nine months in cynomolgus monkeys; type: in vivo
Method: Preclinical studies in monkeys were performed to assess the safety and pharmacology of pegcetacoplan when injected intravitreally. Intravitreally administered pegcetacoplan in cynomolgus monkeys is distributed into the blood stream then further distributed and/or slowly eliminated from the body.

patients with GA [4] = test: Post hoc OCT analysis of Phase 2 trial: progression outside GA lesions (large drusen to iRORA/cRORA, iRORA to cRORA); type: in vivo, human; details: for reduction in the risk of progression to cRORA compared with sham: 12 months
Method: Post hoc analysis was also conducted to assess disease progression outside of GA lesions. Participants in the study (n=246) were categorized into PM (n=86), EOM (n=79), and sham (n=81) categories. Eyes with missed injections and those that developed exudative AMD (whereupon pegcetacoplan treatment was discontinued) were excluded. […] Masked readers evaluated OCT scans outside a 500-micron perimeter from the GA border adhering to classification described in Sadda et al., Ophthalmology 125:537-548 (2018)). […] SD-OCT images obtained at baseline, Month 6, and Month 12 (using the Zeiss Cirrus or 156 Heidelberg Spectralis) using 7-line raster scans (30×5, 240 μm spacing, 7 sections, ART set to 25, 1536 A-scans) and volume scans (20×20; 49 sections, 120 μm spacing, ART set to 16, 512 A-scans) were graded following the CAM criteria independently by two masked readers at the Doheny Image Reading and Research Lab (DIRRL). A senior reader (and member of the CAM group) reviewed all questionable cases flagged by the readers and also adjudicated any discrepancies between graders in order to yield a single consensus result for each case.
Main outcome measures included assessments at baseline, Month 6 and Month 12 of: a) progression from large drusen (≥40 microns height) to incomplete/complete RPE and outer retina atrophy (iRORA and/or cRORA) and b) progression from iRORA to cRORA. Specifically, the endpoints for each treatment group were: proportion of study eyes with at least one iRORA at baseline that progressed to cRORA at 6 and 12 months, and proportion of individual baseline iRORA lesions that progressed to cRORA at 6 and 12 months.
Baseline characteristics were summarized using descriptive statistics. Continuous variables, such as GA lesion size, were summarized using the number of observations, mean, standard deviation, median, minimum, and maximum. Categorical variables, such as the presence of iRORA lesion(s) at baseline, were summarized using counts and percentages. The progression of iRORA to cRORA was summarized at Months 6 and 12 at both the study eye and lesion level. For the study-eye-level summaries, the subset of eyes with at least one iRORA lesion at baseline was included. If at least one iRORA lesion was present at baseline progressed to cRORA during follow-up, the eye was counted as having progressed. The proportion of study eyes with progression was compared between each pegcetacoplan group and the sham control group using a Pearson chi-square test. P values <0.05 were considered statistically significant. Risk ratios and their corresponding 95% confidence intervals were calculated as the proportion that progressed from iRORA to cRORA in the pegcetacoplan group divided by the proportion in the sham group. For the lesion-level summaries of progression, each iRORA lesion present at baseline was assessed separately for progression to a cRORA lesion; the proportion of lesions that progressed was compared between each pegcetacoplan group and the sham control group using descriptive statistics (counts and percentages).

Substance: Poly(oxy-1,2-ethanediyl), α-hydro-ω-hydroxy-, 15,15′-diester with N-acetyl-L-isoleucyl-L-cysteinyl-L-valyl-1-methyl-L-tryptophyl-L-glutaminyl-L-α-aspartyl-L-tryptophylglycyl-L-alanyl-L-histidyl-L-arginyl-L-cysteinyl-L-threonyl-2-[2-(2-aminoethoxy)ethoxy]acetyl-N^6-carboxy-L-lysinamide cyclic (2->12)-(disulfide) [pegcetacoplan]
- serious adverse events (patients with wet AMD; initial nine patients, single intravitreal dose 5, 10 or 20 mg): no serious adverse events were reported
- tolerability (patients with wet AMD; single intravitreal dose 5 mg, 10 mg, 20 mg in 100 microliters): well tolerated
- rate of GA lesion growth (change in GA lesion size from baseline to month 12) (patients with GA [1]): reduced rate of lesion growth
- vitreal half-life [2]: approximately 3.2 days
- apparent half-life of serum concentrations ([2]; serum): 10.4 days
- post-dose day until which serum concentrations increased ([2]; serum): 7 days
- intraocular or serum accumulation over multiple injections ([3]; doses up to 24.8 mg/eye in 5% dextrose, 50 or 100 μL/eye): little intraocular or serum accumulation
- full toxicological review (ophthalmological assessment, SD-OCT, electroretinography, tonometry, histopathology) ([3]; repeated intravitreal injections over nine months, doses up to 24.8 mg/eye): no evidence of pegcetacoplan-mediated changes
- reduction in the risk of progression to cRORA compared with sham (patients with GA [4]; every other month, lesion level): 40%
- reduction in the risk of progression to cRORA compared with sham (patients with GA [4]; every other month, study-eye level): 30%
- reduction in the risk of progression to cRORA compared with sham (patients with GA [4]; monthly, lesion level): 41%
- reduction in the risk of progression to cRORA compared with sham (patients with GA [4]; monthly, study-eye level): 39%
- Relative risk of progression from iRORA to cRORA vs sham (95% CI) (patients with GA [4]; Month 6, PEOM, lesion level data): 0.51 (0.30-0.87)
- Relative risk of progression from iRORA to cRORA vs sham (95% CI) (patients with GA [4]; Month 6, PEOM, study-eye level): 0.76 (0.45-1.29)
- Relative risk of progression from iRORA to cRORA vs sham (95% CI) (patients with GA [4]; Month 6, PM, lesion level data): 0.53 (0.24-1.14)
- Relative risk of progression from iRORA to cRORA vs sham (95% CI) (patients with GA [4]; Month 6, PM, study-eye level): 0.52 (0.23-1.18)
- progression from large drusen to iRORA/cRORA (patients with GA [4]; Month 12, 15 mg monthly (PM)): 22.6%
- Relative risk of progression from iRORA to cRORA vs sham (95% CI) (patients with GA [4]; Month 12, PEOM, lesion level data): 0.60 (0.43-0.82)
- Relative risk of progression from iRORA to cRORA vs sham (95% CI) (patients with GA [4]; Month 12, PEOM, study-eye level): 0.70 (0.50-0.98)
- Relative risk of progression from iRORA to cRORA vs sham (95% CI) (patients with GA [4]; Month 12, PM, lesion level data): 0.59 (0.36-0.97)
- Relative risk of progression from iRORA to cRORA vs sham (95% CI) (patients with GA [4]; Month 12, PM, study-eye level): 0.61 (0.37-1.00)
- progression events from large drusen to iRORA/cRORA vs sham (in words) (patients with GA [4]; Month 12, monthly): relatively fewer progression events
- rate of progression from nascent GA to GA compared to sham controls (in words) (patients with GA [4]; intravitreal injections monthly or every other month): lower rate of progression from nascent GA to GA
- rate of progression of iRORA lesions to cRORA (patients with GA [4]; month 6, every other month (PEOM), lesion level): 20.0%
- progression from iRORA to cRORA, proportion of study eyes (patients with GA [4]; month 6, every other month (PEOM), study-eye level): 40.6%
- rate of progression of iRORA lesions to cRORA (patients with GA [4]; month 6, monthly (PM), lesion level): 20.7%
- progression from iRORA to cRORA, proportion of study eyes (patients with GA [4]; month 6, monthly (PM), study-eye level): 27.8%
- rate of progression of iRORA lesions to cRORA (patients with GA [4]; month 12, every other month (EOM), lesion level): 38.4%
- progression from iRORA to cRORA, proportion of study eyes (patients with GA [4]; month 12, every other month (PEOM), study-eye level): 57.6%
- rate of progression of iRORA lesions to cRORA (patients with GA [4]; month 12, monthly (PM), lesion level): 37.9%
- progression from iRORA to cRORA, proportion of study eyes (patients with GA [4]; month 12, monthly (PM), study-eye level): 50.0%
- rate of progression from iRORA to cRORA compared to sham group (in words) (patients with GA [4]; monthly or every other month): lower rate of progression from iRORA to cRORA
